Reference: patent US20030073133A1, “Individualization of therapy with erectile dysfunction agents” (McGill University, priority 2001, published 2003)
Like-named read-outs stand apart in the source and are kept apart here. Marks after values point to notes of the source that are not given here.

Columns and labels:
[1] = test system: AAMU-Ab; test: Competitive antigen ELISA, cross-reactivity of AAMU-Ab; assay type: binding, rabbit; conditions: 0 = absence of inhibition or inhibition no higher than 40% at highest concentration tested (5 × 10^−3 M)
Method: (§1) Competitive Antigen Elisa
(§2) Buffers and water without additives are filtered through millipore filters and kept for 1 week. BSA, antibodies, Tween™ 20 and horse radish peroxidase conjugates are added to these buffers and water just prior to use. Urine samples are usually collected 4 hours after drinking a cup of coffee (instant or brewed with approximately 100 mg of caffeine per cup) and stored at −80° C. The urine samples are diluted 10 times with sodium phosphate buffer (620 mosm, pH 7.50) and are subsequently diluted with water to give concentrations of AAMU and 1X no higher than 3×10^−6 M in the ELISA. All the pipettings are done with an eight-channel pipette, except those of the antibody and sample solutions. Starting with the last well, 100 μL of a carbonate buffer (100 mM, pH 9.6) containing 2.5 μg mL-1 antibodies are added to each well. After 90 min. at room temperature, the wells are washed three times with 100 mL of TPB: isotonic sodium phosphate buffer (310 mosm, pH 7.50) containing 0.05% Tween™ 20.
(§3) After the initial wash, unoccupied sites are blocked by incubation for 90 min. at room temperature with 100 μL TBP containing 3% BSA. The wells are washed four times with 100 μL TPB. The washing is followed by additions of 50 μL of 12 mg mL^−1 AAMU-HRP or 1X-HRP conjugate in 2× TPB containing 2% BSA, and 50 μL of either water, standard (13 standards; AAMU or 1X, 2×10^−4 to 2×10^−8 M) or sample in duplicate. The microplate is gently shaken with an orbital shaker at room temperature for 3-4 hours. The wells are washed three times with 100 μL TPB containing 1% BSA and three times with water containing 0.05% Tween™ 20. To the washed plate is added 150 μL of a substrate buffer composed of citric acid (25 mM) and sodium phosphate dibasic buffer (50 mM, pH 5.0) containing 0.06% hydrogen peroxide and 0.04% o-phenylenediamine hydrochloride.
as §2, with “were” for “are”, “They were” for “The urine samples are”, “mL-^1” for “mL-1”, “was pipetted.” for “are added to each well.”, “μL” for “mL”
(§4) After the initial wash, unoccupied sites were blocked by incubation for 90 min. at room temperature with 100 μL TBP containing 3% BSA. The wells were washed four times with 100 μL TPB. This was followed by additions of […] of 12 mg mL^−1 AAMU-HRP or 1X-HRP conjugate in 2× TPB containing 2% BSA, and 50 μL of either water, standard (13 standards; AAMU or 1X, 2×10^−4 to 2×10^−8 M) or sample in duplicate. The microplate was gently shaken with an orbital shaker at room temperature for 3-4 hours. The wells were washed three times with 100 μL with TPB containing 1% BSA and three times with water containing 0.05% Tween™ 20. To the washed plate was added 150 μL of a substrate buffer composed of citric acid (25 mM) and sodium phosphate dibasic buffer (50 mM, pH 5.0) containing 0.06% hydrogen peroxide and 0.04% o-phenylenediamine hydrochloride. After 20 min. at room temperature with shaking, the reaction was stopped with 50 μL of 2.5 N HCl.
(§5) The cross reactivities of AAMU-Ab and 1X-Ab were tested using a wide variety of caffeine metabolites and structural analogs (Table 2 below).

[2] = test system: 1X-Ab; test: Competitive antigen ELISA, cross-reactivity of 1X-Ab; assay type: binding, rabbit; conditions: 0 = absence of inhibition or inhibition no higher than 40% at highest concentration tested (5 × 10^−3 M)
Method: as §1, §2, §3
as §2, with “were” for “are”, “They were” for “The urine samples are”, “mL-^1” for “mL-1”, “was pipetted.” for “are added to each well.”, “μL” for “mL”
as §4, §5

[3] = test system: slow and fast acetylators; conditions: cited from earlier work
[4] = test system: impotent men; conditions: cited from earlier work
[5] = test system: poor vs. extensive metabolizers; conditions: cited from earlier work
[6] = test system: individuals prescribed sildenafil; conditions: postmarketing; cited from earlier work
[7] = intracavernosal, mixed populations

SMILES	% Cross-Reaction AAMU-Ab [1]	% Cross-Reaction IX-Ab [2] [%]	other results
CC(=O)Nc1c(N)n(C)c(=O)[nH]c1=O [5-Acetamino-6-amino-1-methyluracil]	100%	0	
CC(=O)Nc1c(N)[nH]c(=O)[nH]c1=O [5-Acetamino-6-amino-uracil]	0.6%	0	
Nc1nc2nc[nH]c2c(=O)[nH]1 [Guanine]	0%	0	
Nc1ccc(S(=O)(=O)c2ccc(N)cc2)cc1 [dapsone, Dapsone]			adverse reactions ([3]; fast acetylators): 17%; adverse reactions ([3]; slow acetylators): 46%
Cn1c(=O)[nH]c2nc[nH]c2c1=O [1-Methyl Xanthine (1x), 1-Methyl Xanthine]	0%	100	
Cn1c(=O)[nH]c(=O)c2[nH]cnc21 [3-Methyl Xanthine]	0%	0	
COc1ccc(Cc2nccc3cc(OC)c(OC)cc23)cc1OC [Papaverine]			penile fibrosis ([4]; after 1 year of treatment): up to 60%; response rates ([4]; alone or with phentolamine, mixed populations of impotent men): about 50%; average duration of erection ([4]; intracavernosal): 50 min
Cn1c(=O)[nH]c2[nH]c(=O)n(C)c2c1=O [1,7-Dimethyluric acid]	0%	0	
Cn1c(=O)[nH]c2[nH]c(=O)[nH]c2c1=O [1-Methyluric acid]	0%	11	
Cn1c(=O)[nH]c2ncn(C)c2c1=O [1,7-Dimethyl Xanthine (Paraxanthine), 1,7-Dimethyl Xanthine]	0%	0.5	
Cn1c(=O)c2c(ncn2C)n(C)c1=O [1,3,7-Trimethyl Xanthine (Caffeine), 1,3,7-Trimethyl Xanthine]	0%	0	
O=c1[nH]c(=O)c2[nH]c(=O)[nH]c2[nH]1 [Uric acid]	0%	0	
Cn1c(=O)c2[nH]cnc2n(C)c1=O [1,3-Dimethyl Xanthine (Theophylline), 1,3-Dimethyl Xanthine]	0%	0.2	
COc1ccc2c(c1)[C@]13CCCC[C@@H]1[C@H](C2)N(C)CC3 [Dextromethorphan]			mean performance +/−SE ([5]; EMs (extensive metabolizers)): 95+/−0.5%; mean performance +/−SE ([5]; PMs (poor metabolizers)): 86+/−6%
CCCCC[C@H](O)/C=C/[C@H]1[C@H](O)CC(=O)[C@@H]1CCCCCCC(=O)O [Alprostadil, prostaglandin E1]			average duration of erection ([4]; intracavernosal): 64 min; attempts in which erections were achieved [4, 7]: 87%; men who achieved erections [4, 7]: Ninety-four
CCCc1nn(C)c2c(=O)[nH]c(-c3cc(S(=O)(=O)N4CCN(C)CC4)ccc3OCC)nc12 [sildenafil, Sildenafil]			deaths identified as having cardiovascular events [6]: Forty-six; deaths with definite or suspected myocardial infarction [6]: 21; individual deaths reported after prescription [6]: 123
Cn1cnc2c1c(=O)[nH]c(=O)n2C [3,7-Dimethyl Xanthine (Theobromine), 3,7-Dimethyl Xanthine]	0%	0	
Cc1nc2[nH]c(=O)[nH]c(=O)c2[nH]1 [8-Methyl Xanthine]	0%	0	
O=c1cc[nH]c(=O)[nH]1 [Uracil]	0%	0	
O=c1[nH]cnc2nc[nH]c12 [Hypoxanthine]	0%	0	
Cn1cnc2[nH]c(=O)[nH]c(=O)c21 [7-Methyl Xanthine]	0%	0	
CC(=O)Nc1c(N)n(C)c(=O)n(C)c1=O [5-Acetamino-6-amino-1,3-dimethyluracil]	0%	0	
O=c1[nH]c(=O)c2[nH]cnc2[nH]1 [Xanthine]	0^a %	0	
